From patent US12227520B2 (priority 2019, dated 2025)
Read-outs that look alike come from different tables or passages of the source.

Tests used:
[1] = Cytotoxicity assay in MT-4 cells; format: cell-based, human; details: human, uninfected MT-4 cells, 5 days incubation; read-out: CC50
Outline: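 Infected MT-4 cells (HIV-1 IIIB, fresh 1:250 dilution of concentrated stock) or mock-infected cells exposed to compounds for 5 days at 37 °C. Viability by CellTiter-Glo luminescence; 5 μM AZT positive control, no-drug negative control. Uninfected cells used for cytotoxicity, with 10 μM puromycin as base-level cytotoxicity control.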

[2] = system: pLai RLuc reporter virus; assay: microbe, parasite or virus in culture; format: cell-based, HIV; details: Human immunodeficiency virus 1, 72 h
Outline: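 MT-4 cells pre-infected 2 h at 37 °C with pLai RLuc virus, then exposed to 1:3 serial dilutions of compound in RPMI/10% FBS with or without 50% human serum for 72 h at 37 °C. Renilla luminescence read-out; serum shift = EC50(HS/CCM)/EC50(CCM).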

[3] = system: HIV-1 (IIIB); assay: Antiviral assay in MT-4 cells (HIV MT-4 antiviral assay); format: cell-based; details: Human immunodeficiency virus 1, IIIB, MT4, 120 h, HIV-1 (IIIB) in MT-4 cells, 5 days incubation; read-out: EC50
Outline: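 MT-4 cells infected with HIV-1 IIIB (1:250 diluted stock) and exposed to 1:3 serially diluted compound in RPMI with 10% FBS. Viability read by CellTiter-Glo luminescence after 5 days at 37° C; mock-infected cells and 5 μM AZT as controls.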

[4] = read-out: Antiviral Serum Shift RLuc 50% HS, HS/CCM (RPMI media, 10% FBS, 50% HS, 1% P/S), 72-h incubation
[5] = read-out: Antiviral Serum Shift RLuc CCM, CCM (RPMI media, 10% FBS, 1% P/S), 72-h incubation

Structure (SMILES) | CC50 at 5 days [1] [nM] | EC50 [2, 4] [nM] | EC50 [2, 5] [nM] | EC50 [3] [nM]
O=C(NCc1ccc(F)c(Cl)c1F)c1cn2c(c(O)c1=O)C(=O)N1CC2CCc2cc(F)c(F)cc21 (centres unmarked) [Example 69, N-(3-chloro-2,4-difluorobenzyl)-2,3-difluoro-7-hydroxy-6,8-dioxo-6,8,13,14-tetrahydro-12H-5,12-methanobenzo[e]pyrido[1,2-a][1,4]diazonine-9-carboxamide] | 36700 | 1.06 | 0.199 | 1.95
O=C(NCc1c(F)cc(F)cc1F)c1cn2c(c(O)c1=O)C(=O)N1Cc3ccccc3C[C@H]2C1 [Example 70, (6S)-1-hydroxy-2,14-dioxo-N-(2,4,6-trifluorobenzyl)-2,7,12,14-tetrahydro-6H-6,13-methanobenzo[f]pyrido[1,2-a][1,4]diazonine-3-carboxamide] | 13300 | 1.32 | 0.322 | 1.41
O=C(NCc1ccc(F)cc1F)c1cn2c(c(O)c1=O)C(=O)N1Cc3ccccc3C[C@H]2C1 [Example 71, (6S)—N-(2,4-difluorobenzyl)-1-hydroxy-2,14-dioxo-2,7,12,14-tetrahydro-6H-6,13-methanobenzo[f]pyrido[1,2-a][1,4]diazonine-3-carboxamide] | 15000 | 1.66 | 0.302 | 2.14
O=C(NCc1c(F)cc(F)cc1F)c1cn2c(c(O)c1=O)C(=O)N1CC[C@@H](F)C[C@H]2C1 [Example 73-1, (5R,7S)-5-fluoro-12-hydroxy-1,11-dioxo-N-(2,4,6-trifluorobenzyl)-1,4,5,6,7,11-hexahydro-3H-2,7-methanopyrido[1,2-a][1,4]diazonine-10-carboxamide] | > 50000 | 0.897 | 0.715 | 5.2
O=C(NCc1c(F)cc(F)cc1F)c1cn2c(c(O)c1=O)C(=O)N1CC[C@@H](F)C[C@@H]2C1 [Example 73-2, (5R, 7R)-5-fluoro-12-hydroxy-1,11-dioxo-N-(2,4,6-trifluorobenzyl)-1,4,5,6,7,11-hexahydro-3H-2,7-methanopyrido[1,2-a][1,4]diazonine-10-carboxamide] | 23100 | 0.919 | 0.283 | 1.82
O=C(NCc1c(F)cc(F)c(Cl)c1F)c1cn2c(c(O)c1=O)C(=O)N1CCCC[C@H]2C1 [Example 74, (7S)—N-(3-chloro-2,4,6-trifluorobenzyl)-12-hydroxy-1,11-dioxo-1,4,5,6,7,11-hexahydro-3H-2,7-methanopyrido[1,2-a][1,4]diazonine-10-carboxamide] | 7280 | 13.8 | 0.492 | 1.52
CC[C@]1(O)CCCN2C[C@H]1n1cc(C(=O)NCc3ccc(F)cc3F)c(=O)c(O)c1C2=O [Example 77, (6S,7R)—N-(2,4-difluorobenzyl)-6-ethyl-6,12-dihydroxy-1,11-dioxo-1,4,5,6,7,11-hexahydro-3H-2,7-methanopyrido[1,2-a][1,4]diazonine-10-carboxamide] | 15100 | 2.13 | 0.762 | 2.17
O=C1CC[C@H]2CN(C1)C(=O)c1c(O)c(=O)c(C(=O)NCc3c(F)cc(F)cc3F)cn12 [Example 78, (7S)-12-hydroxy-1,4,11-trioxo-N-(2,4,6-trifluorobenzyl)-1,4,5,6,7,11-hexahydro-3H-2,7-methanopyrido[1,2-a][1,4]diazonine-10-carboxamide] | > 50000 | 3.76 | 1.93 | 9.56
O=C(NCc1c(F)cc(F)cc1F)c1cn2c(c(O)c1=O)C(=O)N1C[C@@H]2CCCc2ccccc21 [Example 80-1, (6S)-1-hydroxy-2,15-dioxo-N-(2,4,6-trifluorobenzyl)-2,6,7,8,9,15-hexahydro-6,14-methanobenzo[e]pyrido[1,2-a][1,4]diazecine-3-carboxamide] | 10400 | 0.651 | 0.348 | 2.24
O=C(NCc1c(F)cc(F)cc1F)c1cn2c(c(O)c1=O)C(=O)N1C[C@H]2CCCc2ccccc21 [Example 80-2, (6R)-1-hydroxy-2,15-dioxo-N-(2,4,6-trifluorobenzyl)-2,6,7,8,9,15-hexahydro-6,14-methanobenzo[e]pyrido[1,2-a][1,4]diazecine-3-carboxamide] | 13400 | 7.54 | 0.618 | 5.35
O=C(NCc1c(F)cc(F)cc1F)c1cn2c(c(O)c1=O)C(=O)N1CC[C@H](F)CC[C@H]2C1 [Example 81-1, (5R,8S)-5-fluoro-13-hydroxy-1,12-dioxo-N-(2,4,6-trifluorobenzyl)-1,3,4,5,6,7,8,12-octahydro-2,8-methanopyrido[1,2-a][1,4]diazecine-11-carboxamide] | 23900 | 0.649 | 0.466 | 1.96
O=C(NCc1c(F)cc(F)cc1F)c1cn2c(c(O)c1=O)C(=O)N1CC[C@@H](F)CC[C@H]2C1 [Example 81-2, (5S,8S)-5-fluoro-13-hydroxy-1,12-dioxo-N-(2,4,6-trifluorobenzyl)-1,3,4,5,6,7,8,12-octahydro-2,8-methanopyrido[1,2-a][1,4]diazecine-11-carboxamide] | 11200 | 0.737 | 0.304 | 1.35
O=C(NCc1c(F)cc(F)cc1F)c1cn2c(c(O)c1=O)C(=O)N1CCC[C@H](O)C[C@H]2C1 [Example 82-1, (6S,8S)-6,13-dihydroxy-1,12-dioxo-N-(2,4,6-trifluorobenzyl)-1,3,4,5,6,7,8,12-octahydro-2,8-methanopyrido[1,2-a][1,4]diazecine-11-carboxamide] | > 50000 | 5.16 | 4.5 | 20.5
O=C(NCc1c(F)cc(F)cc1F)c1cn2c(c(O)c1=O)C(=O)N1CCC[C@@H](O)C[C@H]2C1 [Example 82-2, (6R,8S)-6,13-dihydroxy-1,12-dioxo-N-(2,4,6-trifluorobenzyl)-1,3,4,5,6,7,8,12-octahydro-2,8-methanopyrido[1,2-a][1,4]diazecine-11-carboxamide] | > 50000 | 3 | 2.09 | 9.57
O=C(NCc1c(F)cc(F)cc1F)c1cn2c(c(O)c1=O)C(=O)N1CC[C@@H](O)CC[C@H]2C1 [Example 83-1, (5S,8S)-5,13-dihydroxy-1,12-dioxo-N-(2,4,6-trifluorobenzyl)-1,3,4,5,6,7,8,12-octahydro-2,8-methanopyrido[1,2-a][1,4]diazecine-11-carboxamide] | > 50000 | 7.08 | 8.19 | 39
O=C(NCc1c(F)cc(F)cc1F)c1cn2c(c(O)c1=O)C(=O)N1CC[C@H](O)CC[C@H]2C1 [Example 83-2, (5R,8S)-5,13-dihydroxy-1,12-dioxo-N-(2,4,6-trifluorobenzyl)-1,3,4,5,6,7,8,12-octahydro-2,8-methanopyrido[1,2-a][1,4]diazecine-11-carboxamide] | > 50000 | 2.08 | 2.15 | 12.8
C[C@H]1CC(F)C[C@H]2CN1C(=O)c1c(O)c(=O)c(C(=O)NCc3c(F)cc(F)cc3F)cn12 (stereo partly drawn) [Example 84, (3S,7S)-5-fluoro-12-hydroxy-3-methyl-1,11-dioxo-N-(2,4,6-trifluorobenzyl)-1,4,5,6,7,11-hexahydro-3H-2,7-methanopyrido[1,2-a][1,4]diazonine-10-carboxamide] | 37200 | 1.36 | 0.427 | 2.01
Cn1cc2c(n1)CC[C@H]1CN2C(=O)c2c(O)c(=O)c(C(=O)NCc3c(F)cc(F)cc3F)cn21 [Example 85-1, (11S)-6-hydroxy-2-methyl-5,7-dioxo-N-(2,4,6-trifluorobenzyl)-2,5,7,11,12,13-hexahydro-4,11-methanopyrazolo[4,3-e]pyrido[1,2-a][1,4]diazonine-8-carboxamide] | > 49900 | 1.57 | 1.06 | 5.64
O=C(NCc1c(F)cc(F)cc1F)c1cn2c(c(O)c1=O)C(=O)N1C[C@@H]2CCc2ccc(F)cc21 [Example 86-2, (12S)-3-fluoro-7-hydroxy-6,8-dioxo-N-(2,4,6-trifluorobenzyl)-6,8,13,14-tetrahydro-12H-5,12-methanobenzo[e]pyrido[1,2-a][1,4]diazonine-9-carboxamide] | 13700 | 0.5 | 0.262 | 1.1
O=C(NCc1c(F)cc(F)cc1F)c1cn2c(c(O)c1=O)C(=O)N1Cc3cc(F)c(F)cc3C[C@H]2C1 [Example 88, (6S)-9,10-difluoro-1-hydroxy-2,14-dioxo-N-(2,4,6-trifluorobenzyl)-2,7,12,14-tetrahydro-6H-6,13-methanobenzo[f]pyrido[1,2-a][1,4]diazonine-3-carboxamide] | > 23400 | 1.62 | 0.269 | 1.61
